Literature values as cited in patent US20230346652A1, “Foaming Hand Sanitizer with High Alcohol Content” (Ele' Corporation, priority 2021, published 2023).

How the values were obtained:
[1] = tested on: certain non-enveloped viruses

For `CCO` [ethanol], which “ethanol concentration necessary to kill within 30 seconds” value [1] is on record?
Its value is “up to 95%”.

What about the “ethanol concentration effective within 30 seconds” value (enveloped viruses) of the same compound?
The value was “less than 75 % (by weight)”.
